Laboratory results as given in article PMC7483518, “Destabilizing single chain major histocompatibility complex class I protein for repurposed enterokinase proteolysis” (Scientific Reports, 2020).
Like-named read-outs stand apart in the source and are kept apart here.

Assays:
[1] = target: photolabile unchained HLA-A*11:01 pMHC-I protein (Homo sapiens, UniProt P04439, A114D/D185E/E176A/F33Y/L180Q/S129P/T187R); test: ELISA with photolabile unchained pMHC-I protein and UV irradiation; format: binding; details: for ELISA450nm: Table 2, 62.5 nM photolabile pMHC-I mixture, 5 μM peptide in PBS, UV 365 nm 2 × 5 min on ice, 2 h room temperature on anti-β2m plate, Abs450nm − Abs570nm, instability cutoff < 0.6
[2] = system: HLA-A*11:01 single chain protein; format: biochemical, Human; set-up: EZ50kDa / EZ50kD (pH 6.2) / EZ50kD (pH 8) / EZ50kD (normalised: EBV1101 = 1, EBV0201 = 0) / EZ50kDa rank: unit not given beside the values; details: for EZ50kD (pH 6.2): Table 2, instability cutoff < 0.3;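 as to EZ50kD (pH 6.2): scaled with positive control peptide as 1 and negative control peptide as 0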;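 as to EZ50kDa: intact 50 kDa band volume scaled with positive control peptide as 1 and negative as 0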
[3] = EASY MHC-I A*11:01, run 2019-08-07, 5min, mean of 2 replicates
[4] = EASY MHC-I A*11:01, 2019-08-01, mean of the 2 replicates
[5] = pH 6.2, 37 °C, enterokinase, Eq. (4)
[6] = EASY MHC-I A*11:01, gel 2019-07-23 lr1037_1045_5min, replicate 1 (first lane set)
[7] = EASY MHC-I A*11:01, gel 2019-07-23 lr1037_1045_5min, replicate 2 (second lane set)
[8] = EASY MHC-I A*11:01, run 2019-08-08, 5min, mean of 2 replicates

In the case of LITQLMPFGS [CS1018], the EASY_mean [1] is reported as 0.007236 and the EZ_mean [2] is reported as -0.05783.

In the case of MPLGSLLDYVR [CS1034], the EASY_mean [1] is reported as -0.006346 and the EZ_mean [2] is reported as -0.06141.

QLIMQLMP [TM1005] gave an EASY_mean ([1]; ELISA signal, mean, […]) of -0.03905 and an EZ_mean ([2]; EASY MHC-I A*11:01, run 2019-08-06, 5min, mean of 2 replicates) of -0.1114.

Sequence TSTVQLIMQ [TM1010] has an EASY_mean ([1]; […], mean, STDEV) of -0.01875 and an EZ_mean [2, 3] of -0.07795.

In the case of MPFGSLLD [CS1004], the EASY_mean [1] is reported as -0.003998 and the EZ_mean [2] is reported as -0.07336.

FGSLLDYVREH [CS1036] gave an EASY_mean [1] of 0.0933, an EZ_mean [2] of 0.04199 and an EZ50kDa ([2]; Table 3, EGFR peptide library (n = 177, duplicated), pH 6.2, 37 °C, 14 h, enterokinase, Eq. (4)) of 0.0420 ± 0.010.

Work on TSPKANKEIL [EX1015] yielded an EASY_mean ([1]; […], mean, STDEV) of -0.004833 and an EZ_mean ([2]; EASY MHC-I A*11:01, 2019-07-26, mean of the 2 replicates) of -0.1061.

TVQLIMQLMPF [TM1033] gave an EASY_mean ([1]; […], mean, STDEV) of -0.06339 and an EZ_mean [2] of -0.1125.

Work on GSLLDYVR [CS1007] yielded an EASY_mean [1] of -0.02696 and an EZ_mean [2] of -0.06759.

TSPKANKE [EX1004] gave an EASY_mean [1] of -0.008845 and an EZ_mean [2] of -0.03458.

TQLMPFGS [CS1001] showed an EASY_mean [1] of 0.00928 and an EZ_mean [2] of -0.06222.

With “LMPFGSLLD [CS1012, probably meant CS1032]” the EASY_mean [1] was -0.02081, the EZ_mean [2] was -0.06046 and the “EZ MHC-I stability with HLA-A*11:01 single chain protein” value ([2]; Fig. 2f,g, EGFR peptide library) was “strongly stabilizing”.

MPFGSLLDYV [CS1023] gave an EASY_mean [1] of 0.02198 and an EZ_mean [2] of -0.04531.

MPFGSLLDY [CS1013] gave an EASY_mean [1] of -0.03532 and an EZ_mean [2] of -0.0684.

In the case of DFGRAKLLGA [LR1024], the EASY_mean ([1]; ELISA signal, mean, […]) is reported as -0.02296 and the EZ_mean [2] is reported as -0.06389.

For VAIKTSPKANKE [EX1026], the EASY_mean [1] was -0.02113 and the EZ_mean [2, 4] was -0.1295.

Sequence TVQLIMQLM [TM1012] has an EASY_mean ([1]; […], mean, STDEV) of -0.03295 and an EZ_mean [2, 3] of -0.1032.

ITQLMPFGS [CS1009] gave an EASY_mean [1] of -0.02581 and an EZ_mean [2] of -0.06498.

Sequence CLTSTVQLIM [TM1018] has an EASY_mean ([1]; […], mean, STDEV) of 0.01464 and an EZ_mean [2, 3] of -0.01698.

IPVAIKTSPKAN [EX1024] showed an EASY_mean [1] of -0.02211 and an EZ_mean [2, 4] of -0.1301.

In the case of TDFGRAKLLG [LR1023], the EASY_mean ([1]; […], mean, STDEV) is reported as -0.02398 and the EZ_mean [2] is reported as -0.0651.

For TVMDIISRR [reference compound], the ELISA450nm [1] was 1.944 and the “EZ50kD (pH 6.2)” value [2, 5] was 1.086.

With GRAKLLGAEEK [LR1037] the EASY_mean [1] was 0.0001747, the EZ_mean ([2]; EASY MHC-I A*11:01, gel 2019-07-23 lr1037_1045_5min, mean of 2 replicates) was -0.05993 and the “EZ50kD (normalised: EBV1101 = 1, EBV0201 = 0)” value [2, 6] was -0.04549. The “Norm (50 kDa band adj. volume normalised: Undig_37C = 1, Dig_37C = 0)” value [2, 6] was -0.01318, the “EZ50kD (normalised: EBV1101 = 1, EBV0201 = 0)” value [2, 7] was -0.07437 and the “Norm (50 kDa band adj. volume normalised: Undig_37C = 1, Dig_37C = 0)” value [2, 7] was 0.01353.

With ITDFGRAKLL [LR1022] the EASY_mean ([1]; […], mean, STDEV) was -0.02159 and the EZ_mean [2] was -0.0609.

Work on TSPKANKEILDE [EX1030] yielded an EASY_mean [1] of -0.0262 and an EZ_mean [2, 4] of -0.138.

Work on LIMQLMPFGC [TM1025] yielded an EASY_mean ([1]; ELISA signal, mean, […]) of -0.02724, an EZ_mean [2, 8] of -0.05365 and a Norm_mean [2, 8] of -0.04493.

GRAKLLGAEE [LR1026] was tested, and the EASY_mean ([1]; […], mean, STDEV) was -0.01509 and the EZ_mean [2] was -0.04989.

In the case of QLIMQLMPFG [TM1024], the EASY_mean ([1]; ELISA signal, mean, […]) is reported as -0.01897, the EZ_mean [2, 8] is reported as -0.01105 and the Norm_mean [2, 8] is reported as 0.009219.

For FGSLLDYVR [CS1015], the EASY_mean [1] was -0.01602 and the EZ_mean [2] was -0.05849.

For NTLEQTVKK [reference compound], the ELISA450nm [1] was 1.631 and the “EZ50kD (pH 6.2)” value [2, 5] was 0.5647.

Sequence IKTSPKANKEIL [EX1028] has an EASY_mean [1] of -0.02595 and an EZ_mean [2, 4] of -0.1371.

In the case of VQLITQLMPFGS [CS1039], the EASY_mean [1] is reported as -0.02003 and the EZ_mean [2] is reported as -0.04039.

Work on TSTVQLIMQLM [TM1031] yielded an EASY_mean ([1]; […], mean, STDEV) of -0.04936 and an EZ_mean [2] of -0.09739.

Sequence MQLMPFGCL [TM1017] has an EASY_mean ([1]; […], mean, STDEV) of -0.03322 and an EZ_mean [2, 3] of -0.1037.

AIKTSPKA [EX1001] gave an EASY_mean [1] of -0.01453 and an EZ_mean [2] of -0.04572.

With IMQLMPFGCLL [TM1037] the EASY_mean ([1]; ELISA signal, mean, […]) was -0.05375 and the EZ_mean [2] was -0.1199.
